How the values were obtained:
[1] = Body weight of POI model mice before modeling, after modeling and after treatment; type: in vivo; conditions: for Body weight before modeling: D 0, 100 mg/kg/d oral; for Body weight after modeling: D 7, 100 mg/kg/d oral; for Body weight after treatment: D 13, 100 mg/kg/d oral
Procedure: Animal model establishment: A total of 34 C57 female mice (8-week-old) were selected and intraperitoneally injected with the ratio of 120 mg/kg cyclophosphamide (SIGMA) and 30 mg/kg Busulfan (Aladdin) once a day for 1 week at the dose of 0.1 mL/10 g to establish the model of POI.
Grouping: 34 POI model mice were randomly divided into four groups: sodium fumarate (SF) treatment group (n=9), hyodeoxycholic acid (HDCA) treatment group (n=8), sodium fumarate plus hyodeoxycholic acid (mass ratio 1:1) combination (SF+HDCA) treatment group (n=8) and normal saline (Vehicle) group (n=9). Mice in the SF group were given oral administration of SF at the ratio of 100 mg/kg/d body weight, mice in the HDCA group were given oral administration of HDCA at the ratio of 100 mg/kg/d body weight, and mice in the combination group were given oral administration of SF and HDCA at the ratio of 100 mg/kg/d body weight. SF and HDCA were dissolved with 0.9% normal saline when used. Mice in the vehicle group were given the same amount of normal saline orally. All the mice were treated consecutively for 12 days.
Body weight were recorded at three time points, before modeling (at the beginning of treatment), after modeling and after treatment.
Animal model establishment: A total of 24 C57 mice (8-week-old) were selected and intraperitoneally injected with the ratio of 120 mg/kg cyclophosphamide and 30 mg/kg Busulfan once a day for 1 week at the dose of 0.1 mL/10 g to establish the model of POI.
Grouping: 24 POI model mice were randomly divided into four groups: dimethyl fumarate (DMF) treatment group (n=5), hyodeoxycholic acid (HDCA) treatment group (n=6), dimethyl fumarate plus hyodeoxycholic acid (mass ratio=1:1) combination (DMF+HDCA) treatment group (n=7) and normal saline (Vehicle) group (n=6). Mice in the DMF treatment group were orally administrated at the ratio of 100 mg/kg/d body weight. Mice in the HDCA treatment group were given oral administration of HDCA at the ratio of 100 mg/kg/d body weight, and mice in the combination group were given oral administration of DMF and HDCA at the ratio of 100 mg/kg/d body weight. Once daily, DMF and HDCA were dissolved in 0.9% normal saline when used. Mice in normal saline group were given the same amount of normal saline orally every day. The drug was administered for 12 days.
Body weight were recorded at three time points, before modeling (at the beginning of treatment, the 0th day), after modeling (the 7th day) and after treatment (the 13th day).
The body weight of POI model mice of each group was measured before modeling, after modeling and after treatment.

POI model mice = assay: Estrous cycle observation by vaginal smear cytology in POI model mice; type: in vivo
Procedure: Cytological observation of vaginal smear was performed daily.
The vagina of mice was exposed, and about 30 μl of normal saline was dripped into the vagina, gently aspirated onto the slide, and observed under the microscope. Staining was performed when necessary, fixed with 95% ethanol for 10 minutes, stained with hematoxylin in aqueous solution for 5-8 minutes, washed with running water for color separation, and then stained with eosin for 3 minutes. After drying. the slices were sealed with neutral gum.
The vagina of mice was exposed, and about 30 μl of normal saline was dripped into the vagina, gently aspirated onto the slide, and observed under the microscope. Staining was performed when necessary, stained with hematoxylin in aqueous solution for several minutes after drying, washed with running water for color separation, and then stained with alchhol eosin for several seconds. The slices were sealed with neutral gum.
During the estrous cycle, a series of histological and physiological changes occur in the reproductive and endocrine systems of mice. According to these changes, the estrous cycle can be divided into proestrous (P), estrous (E), metestrum (M) and diestrum (D). • 1. Observation of estrous cycle in mice of Example 1
After modeling and treatment, there were 6 mice left in the normal saline group, 6 mice left in the sodium fumarate treatment group, 7 mice left in the hyodeoxycholic acid group, and 7 mice left in the sodium fumarate and hyodeoxycholic acid combination group. […] The estrous cycle was divided into four periods (P: proestrous; E: estrous period; M: metestrum; D: diestrum) for vaginal smear cytological observation, the results are shown in FIG. 3.
The estrous cycle of mice was plotted according to the cytological results of vaginal smears observed for 12 consecutive days, and the results are shown in FIG. 4. The estrous cycle of mice is about 4 to 5 days, which is divided into four periods alternately. […] The estrous cycle of 4 mice was recovered in sodium fumarate treatment group. The estrous cycle of 3 mice was recovered in HDCA group. The estrous cycle of 6 mice was recovered in group treated with SF and HDCA.

POI mice = assay: Serum relative reactive oxygen species (ROS) level; type: in vivo
Excerpt: Biomarkers mentioned herein, such as follicle stimulating hormone (FSH), estrogen (e.g., E2), and superoxide dismutase (SOD), malondialdehyde (MDA), relative reactive oxygen species (ROS), and lactate dehydrogenase (LDH), etc., can be detected using methods commonly known in the field. Detection methods typically cover methods that quantify the level of a biomarker in a sample (quantitative methods). Which of the following methods are suitable for qualitative and/or quantitative detection of biomarkers is generally known to those skilled in the field. Samples can be conveniently measured, for example for proteins using immunoassays such as ELISA, RIA, etc., which are commercially available.
The oxidative stress hypothesis believes that the reduction of antioxidant components in the body leads to the weakening of the ability to remove free radicals, which leads to oxidative damage of biological macromolecules, and the imbalance of cellular oxidative and antioxidant functions, which leads to oxidative stress, and then leads to disease and aging. Oxygen free radicals act on unsaturated fatty acids of lipids to generate lipid peroxides, including malondialdehyde (MDA) and so on. The antioxidant defense system of scavenging free radicals includes superoxide dismutase (SOD) and so on. Recently, oxidative stress has been reported to be associated with ovarian aging and POI in primates. Therefore, this embodiment examined the effects of DMF, HDCA, and DMF+HDCA on oxidative stress in mice with premature ovarian failure, and the results are shown in Table 5, FIGS. 9 to 12.

ovarian tissues = assay: RNA transcription level sequencing of ovarian tissues, differentially expressed genes; type: in vivo, mice; conditions: ovarian tissue RNA sequencing, FC>2, Q<0.05
Procedure: Mice were sacrificed after various treatments, and ovarian tissues were taken, snap-frozen in liquid nitrogen, stored at −80° C., and sent to Annoroad for RNA transcription level sequencing. Bioinformatics analysis and mapping were performed on the sequencing results. […] The differential genes of the three treatment groups were intersectioned. […] These differential gene sets were then subjected to Gene Ontology function (GO) enrichment (FC>2, Q<0.05) (FIG. 16) and signaling pathway (KEGG) analysis mapping (FIG. 17), respectively.

[2] = Example 1, during drug administration, FIG. 4B

C[C@H](CCC(=O)O)[C@H]1CC[C@H]2[C@@H]3C[C@H](O)[C@@H]4C[C@H](O)CC[C@]4(C)[C@H]3CC[C@]12C [HDCA, hyodeoxycholic acid, reference compound]
Body weight before modeling ([1]; Example 1 POI mice): 18.79 ± 0.80 g
Body weight after modeling ([1]; Example 1 POI mice): 17.69 ± 1.03 g
Body weight after treatment ([1]; Example 1 POI mice): 17.96 ± 1.20 g
Weight recovery after chemotherapy ([1]; Example 1 POI mice, FIG. 2A): significantly beneficial
Body weight before modeling ([1]; Example 2 POI mice): 18.32 ± 1.61 g
Body weight after modeling ([1]; Example 2 POI mice): 16.31 ± 2.02 g
Body weight after treatment ([1]; Example 2 POI mice): 17.10 ± 2.24 g
Weight recovery after chemotherapy ([1]; Example 2 POI mice, FIG. 2B): significantly beneficial
Effect on mice with premature ovarian failure (conclusion from estrous cycle) (POI model mice; Example 1): preventive and therapeutic effects
Average rate of diestrum (D) in estrous cycle (POI model mice; [2]): 39.29%
Average rate of estrous stage (E) in estrous cycle (POI model mice; [2]): 22.62%
Average rate of metestrum (M) in estrous cycle (POI model mice; [2]): 14.29%
Average rate of proestrous (P) in estrous cycle (POI model mice; [2]): 23.81%
Number of mice with estrous cycle recovered (POI model mice; Example 1, 12 days observation, 6 SF, 7 HDCA, 7 SF and HDCA mice left): 3 mice
ROS levels compared with the normal saline group (POI mice; FIG. 11): significantly reduced
ROS (POI mice; relative ROS level in serum, POI mice after treatment): 4.589 ± 0.599
Number of genes down-regulated compared with the control group (ovarian tissues): 4749 genes
Number of genes up-regulated compared with the control group (ovarian tissues): 1898 genes

Reference: US12622890B2, “Use of the active compound in the prevention or treatment of ovarian dysfunction diseases” (INSTITUTE OF BIOPHYSICS, CHINESE ACADEMY OF SCIENCES, priority 2022, dated 2026)
